For series [1] the following is noted: cited from earlier work.
A further series concerns healthy probands. Particulars: administered two hours prior to consumption of alcoholic beverages; cited from earlier work.
In another series the test system is female AA rats. The experiment in a line: Reduction of alcohol consumption and alcohol preference in alcohol-preferring AA rats (free choice between water and 10% v/v ethanol). Particulars: for Alcohol solution consumed: 10% aqueous ethanol. The format is in vivo, rat. The text has this:
The “AA” strain of rats, bred in Finland, has a genetically determined preference for alcohol, which means that even without pre-treatment with alcohol the animals, when given free choice, prefer alcohol-containing liquids, to alcohol-free liquids to satisfy their fluid requirement. This strain has therefore been used in numerous studies on the pharmacology of alcohol and is extremely well characterized.
Female AA rats (tested for alcohol preference and made available by the Public Health Institute in Helsinki) were housed individually and had free access to standard feed (Altromin 1324 granulate), the ambient temperature was 24±1° C. and the light-dark change was 12/12 hours (the dark period lasting from 6 p.m. to 6 a.m. Each cage contained two identical drinking bottles, of which one contained pure water and the other contained aqueous ethanol (10% v/v). During the 12-hour dark period the animals had access to the drinking bottles and during this period had free choice between the two solutions. To prevent the animals from becoming accustomed to a particular position in the cage, the positions of the bottles were changed daily. Prior to start of the tests, the animals were granted an adaptation phase until a largely constant alcohol and water consumption was ensured.
Deoxypeganine hydrochloride (called “DOP” in the following) was obtained from the Institute for the Pharmacology of Plants (Taschkent, Usbekistan) and supplied by the firm of LTS Lohmann Therapie-Systeme (Andemach, Germany) after checking for identity and purity. Mecamylamine was obtained as a commercial preparation from Sigma-Aldrich GmbH (Munich).
Treatment of the test animals always took place immediately prior to the start of the dark period. Mecamylamine was dissolved in 0.9% aqueous saline and a volume of 5 ml/kg body weight was administered by intraperitoneal injection. DOP was applied as an aqueous solution with a volume of 10 ml/kg by a probang.
In the case of combination treatments, this administration took place within a period of less than 10 minutes. Two treatment-free days were always interposed prior to and following the treatment days.
The parameters recorded were consumption of alcohol, consumption of water and consumption of feed (each in grams), as well as alcohol preference, calculated using the formula: [formula]
The target parameters were in each case traced during the 12 hours of the dark period following treatment, intermediate results were recorded after the first 4 hours and final results after 12 hours. Statistical evaluation of the test data was performed using the t-test for dependent values. The results in respect of consumption of alcohol and alcohol preference are summarized in FIGS. 1 and 2 as well as in Tables 1 and 2.

For series [2], the system named is extracellular dopamine concentration in the nucleus accumbens. Particulars: nucleus accumbens of the rat; baseline dopamine release not impaired; cited from earlier work.
The target in another series is T1, monoamine oxidase A (Homo sapiens, UniProt P21397).
T1 sequence (P21397 1-527): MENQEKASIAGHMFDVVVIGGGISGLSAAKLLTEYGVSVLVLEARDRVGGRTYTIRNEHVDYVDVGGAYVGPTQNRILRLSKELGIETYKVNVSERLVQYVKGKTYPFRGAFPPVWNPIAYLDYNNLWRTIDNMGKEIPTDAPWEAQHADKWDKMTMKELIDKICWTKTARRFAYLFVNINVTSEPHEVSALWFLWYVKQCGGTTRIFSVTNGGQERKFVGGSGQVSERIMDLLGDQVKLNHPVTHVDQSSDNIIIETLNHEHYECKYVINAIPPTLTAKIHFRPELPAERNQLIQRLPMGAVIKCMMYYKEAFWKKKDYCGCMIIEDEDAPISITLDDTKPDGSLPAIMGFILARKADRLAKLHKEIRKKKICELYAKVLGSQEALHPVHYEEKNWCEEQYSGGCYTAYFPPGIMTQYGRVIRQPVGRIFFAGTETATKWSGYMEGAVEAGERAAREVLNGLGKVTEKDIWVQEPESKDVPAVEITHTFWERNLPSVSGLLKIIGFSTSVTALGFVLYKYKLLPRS
Conditions: cited from earlier work.

Series [3] relates to neuronal nicotinic acetylcholine receptors (NACHRs). Conditions: in pharmacologically relevant concentrations; cited from earlier work.
[4] abbreviates: Trial 2, Mec 1 mg/kg i.p., After 4 hours.
[5] abbreviates: Trial 2, Mec 1 mg/kg i.p., After 8 hours (subsequent eight hours).
Where [6] appears, read: Trial 2, Mec 1 mg/kg i.p., Total (12 hours).
Where [7] appears, read: Trial 1, DOP 20 mg/kg p.o., After 4 hours.
The mark [8] stands for this setting: Trial 1, DOP 20 mg/kg p.o., After 8 hours (subsequent eight hours).
[9] abbreviates: Trial 1, DOP 20 mg/kg p.o., Total (12 hours).
Setting [10] is: Trial 2, DOP 20 mg/kg p.o., After 4 hours.
Setting [11] is: Trial 2, DOP 20 mg/kg p.o., After 8 hours (subsequent eight hours).
Where [12] appears, read: Trial 2, DOP 20 mg/kg p.o., Total (12 hours).

For the compound `CNC1(C)C2CCC(C2)C1(C)C` (racemic) [Mec, reference compound], the Oral bioavailability in series [1] is listed as ~100%. Also, the “Effect on the centrally stimulating psychotropic effect of alcohol” value in the series with healthy probands is reported as “reduced the centrally stimulating psychotropic effect”. In addition, the Alcohol solution consumed with female AA rats (setting [4]) was determined as 5.4 ± 0.5 gram; in the series on female AA rats (setting [5]) it was 10.1 ± 0.4 gram; in the series on female AA rats (setting [6]), 15.5 ± 0.5 gram. For the same compound, the “Effect on consumption of alcohol and alcohol preference” value was “no effect” in the series with female AA rats (Mecamylamine 1 mg/kg i.p. administered singly); “potentiated the effect of DOP on both parameters” in the series on female AA rats (Mecamylamine 1 mg/kg i.p. combined with DOP 20 mg/kg p.o.); “without effect with regard to alcohol” with female AA rats (mecamylamine 0.5 mg/kg i.p. combined with DOP 20 mg/kg p.o.); “without effect with regard to alcohol” with female AA rats (mecamylamine 0.75 mg/kg i.p. combined with DOP 20 mg/kg p.o.); “potentiating effect could not be increased further” in the series with female AA rats (mecamylamine dosage increased to 1.5 mg/kg i.p., combined with DOP 20 mg/kg p.o.). Besides, the Alcohol preference in the series on female AA rats (setting [4]) was 85.3 ± 4.2%; in the series with female AA rats (setting [5]), 87.8 ± 3.1%; in the series with female AA rats (setting [6]), 86.3 ± 2.6%. For the same compound, the “Blockade of alcohol-induced increase in extracellular dopamine concentration” value in series [2] is recorded as “completely blocks”.

For the compound `c1ccc2c(c1)CN1CCCC1=N2` [DOP, 1,2,3,9-tetrahydropyrrollo[2,1-b]chinazoline], the “Inhibition of monoamine oxidase A” value at monoamine oxidase A is “inhibits monoamine oxidase A”. Besides, the Alcohol solution consumed was 5.2 ± 0.6 gram in the series with female AA rats (setting [7]); 10.2 ± 0.6 gram in the series with female AA rats (setting [8]); 15.4 ± 1.1 gram in the series with female AA rats (setting [9]); 5.8 ± 0.6 gram in the series on female AA rats (setting [10]); 10.7 ± 0.5 gram in the series with female AA rats (setting [11]); 16.6 ± 0.6 gram in the series with female AA rats (setting [12]). In addition, in the series with female AA rats (DOP 20 mg/kg p.o., preferably within the first 4 hours after administration), the “Effect on consumption of alcohol and alcohol preference” value was “lowered the consumption of alcohol and alcohol preference”. In addition, the Alcohol preference in the series on female AA rats (setting [7]) was found to be 57.4 ± 7.1%; with female AA rats (setting [8]), 82.0 ± 4.0%; with female AA rats (setting [9]), 70.5 ± 4.5%; in the series on female AA rats (setting [10]), 55.6 ± 7.6%; in the series on female AA rats (setting [11]) it was 88.0 ± 2.1%; in the series on female AA rats (setting [12]) it was 72.7 ± 4.3%. Besides, the “Binding to NACHRs” value in series [3] was “does not bind to NACHRs”.

For `O=C1CC[C@@]2(O)[C@H]3Cc4ccc(O)c5c4[C@@]2(CCN3CC2CC2)[C@H]1O5` [naltrexone], the Oral bioavailability result in series [1] was “approx. 5%”.

The values are drawn from patent US20060199866A1, “Combination of desoxypeganine and mecamylanine for the treatment of alcohol abuse” (priority 2003, published 2006).
